Reference: the NIST ThermoML archive (doi:10.1016/j.jct.2016.05.015)

Assay: xn = mol fraction of the nth substance listed
Conditions: 100 kPa, Liquid; for viscosity: Capillary tube (Ostwald / Ubbelohde) method; for speed of sound: Frequency=2 MHz, Linear variable-path acoustic interferometer; for mass density: Vibrating tube method

Nc1cccc(Cl)c1 [3-chlorobenzenamine] + Brc1ccccc1
Conditions | mass density [kg/m3] | speed of sound [m/s] | viscosity [mPa·s]
303.15 K, x1 = 0.0902 | 1457.14 | 1162.5 | 1.364
303.15 K, x1 = 0.1842 | 1431.71 | 1191.5 | 1.741
303.15 K, x1 = 0.2789 | 1406 | 1222.1 | 2.101
303.15 K, x1 = 0.3759 | 1379.47 | 1255.1 | 2.454
303.15 K, x1 = 0.4745 | 1352.34 | 1290.5 | 2.795
303.15 K, x1 = 0.5763 | 1324.09 | 1329.2 | 3.131
303.15 K, x1 = 0.6782 | 1295.62 | 1370.2 | 3.446
303.15 K, x1 = 0.7852 | 1265.62 | 1416 | 3.752
303.15 K, x1 = 0.8914 | 1235.79 | 1464.5 | 4.022
303.15 K, x1 = 1 | 1205.32 | 1517.5 | 4.255
308.15 K, x1 = 0.0902 | 1451.19 | 1148.3 | 1.307
308.15 K, x1 = 0.1842 | 1425.93 | 1177.1 | 1.65
308.15 K, x1 = 0.2789 | 1400.36 | 1207.4 | 1.976
308.15 K, x1 = 0.3759 | 1373.99 | 1240.2 | 2.291
308.15 K, x1 = 0.4745 | 1346.99 | 1275.4 | 2.593
308.15 K, x1 = 0.5763 | 1318.91 | 1313.8 | 2.888
308.15 K, x1 = 0.6782 | 1290.63 | 1354.7 | 3.166
308.15 K, x1 = 0.7852 | 1260.78 | 1400.3 | 3.427
308.15 K, x1 = 0.8914 | 1231.09 | 1448.6 | 3.657
308.15 K, x1 = 1 | 1200.75 | 1501.2 | 3.842
313.15 K, x1 = 0.0902 | 1444.19 | 1134.9 | 1.223
313.15 K, x1 = 0.1842 | 1419.21 | 1163 | 1.533
313.15 K, x1 = 0.2789 | 1393.88 | 1192.8 | 1.826
313.15 K, x1 = 0.3759 | 1367.75 | 1224.9 | 2.104
313.15 K, x1 = 0.4745 | 1340.99 | 1259.3 | 2.372
313.15 K, x1 = 0.5763 | 1313.18 | 1296.9 | 2.632
313.15 K, x1 = 0.6782 | 1285.16 | 1336.9 | 2.876
313.15 K, x1 = 0.7852 | 1255.6 | 1381.6 | 3.105
313.15 K, x1 = 0.8914 | 1226.16 | 1428.7 | 3.293
313.15 K, x1 = 1 | 1196.02 | 1480.3 | 3.43
318.15 K, x1 = 0.0902 | 1437.77 | 1124.6 | 1.155
318.15 K, x1 = 0.1842 | 1412.99 | 1152.3 | 1.437
318.15 K, x1 = 0.2789 | 1387.82 | 1181.7 | 1.692
318.15 K, x1 = 0.3759 | 1361.85 | 1213.3 | 1.934
318.15 K, x1 = 0.4745 | 1335.26 | 1247.3 | 2.165
318.15 K, x1 = 0.5763 | 1307.62 | 1284.5 | 2.388
318.15 K, x1 = 0.6782 | 1279.81 | 1324 | 2.595
318.15 K, x1 = 0.7852 | 1250.46 | 1368 | 2.786
318.15 K, x1 = 0.8914 | 1221.22 | 1414.5 | 2.934
318.15 K, x1 = 1 | 1191.25 | 1464.8 | 3.022

Nc1cccc(Cl)c1 [3-chlorobenzenamine] + Clc1ccccc1
Conditions | mass density [kg/m3] | speed of sound [m/s] | viscosity [mPa·s]
303.15 K, x1 = 0.0895 | 1106.11 | 1265.6 | 1.126
303.15 K, x1 = 0.1802 | 1116.69 | 1284.1 | 1.516
303.15 K, x1 = 0.2935 | 1129.74 | 1308.9 | 1.975
303.15 K, x1 = 0.3821 | 1139.77 | 1329.6 | 2.317
303.15 K, x1 = 0.4956 | 1152.34 | 1358.1 | 2.738
303.15 K, x1 = 0.5823 | 1161.75 | 1381.5 | 3.046
303.15 K, x1 = 0.6923 | 1173.48 | 1413.3 | 3.417
303.15 K, x1 = 0.8012 | 1184.88 | 1447.5 | 3.756
303.15 K, x1 = 0.8856 | 1193.58 | 1476 | 3.991
303.15 K, x1 = 1 | 1205.32 | 1517.5 | 4.255
308.15 K, x1 = 0.0895 | 1100.43 | 1243.5 | 1.059
308.15 K, x1 = 0.1802 | 1111.15 | 1262.3 | 1.418
308.15 K, x1 = 0.2935 | 1124.32 | 1287.4 | 1.835
308.15 K, x1 = 0.3821 | 1134.43 | 1308.4 | 2.145
308.15 K, x1 = 0.4956 | 1147.15 | 1337.4 | 2.522
308.15 K, x1 = 0.5823 | 1156.68 | 1361.3 | 2.797
308.15 K, x1 = 0.6923 | 1168.55 | 1393.9 | 3.126
308.15 K, x1 = 0.8012 | 1180.09 | 1429 | 3.421
308.15 K, x1 = 0.8856 | 1188.91 | 1458.3 | 3.623
308.15 K, x1 = 1 | 1200.75 | 1501.2 | 3.842
313.15 K, x1 = 0.0895 | 1095.5 | 1223.6 | 0.9961
313.15 K, x1 = 0.1802 | 1106.27 | 1242.2 | 1.322
313.15 K, x1 = 0.2935 | 1119.45 | 1267.1 | 1.697
313.15 K, x1 = 0.3821 | 1129.56 | 1288 | 1.972
313.15 K, x1 = 0.4956 | 1142.29 | 1316.8 | 2.306
313.15 K, x1 = 0.5823 | 1151.83 | 1340.5 | 2.548
313.15 K, x1 = 0.6923 | 1163.77 | 1373.1 | 2.839
313.15 K, x1 = 0.8012 | 1175.35 | 1408.2 | 3.097
313.15 K, x1 = 0.8856 | 1184.21 | 1437.5 | 3.264
313.15 K, x1 = 1 | 1196.02 | 1480.3 | 3.43
318.15 K, x1 = 0.0895 | 1090.31 | 1198.7 | 0.9397
318.15 K, x1 = 0.1802 | 1101.12 | 1217.7 | 1.238
318.15 K, x1 = 0.2935 | 1114.34 | 1243.1 | 1.57
318.15 K, x1 = 0.3821 | 1124.49 | 1264.5 | 1.808
318.15 K, x1 = 0.4956 | 1137.26 | 1294.2 | 2.098
318.15 K, x1 = 0.5823 | 1146.85 | 1318.8 | 2.308
318.15 K, x1 = 0.6923 | 1158.87 | 1352.6 | 2.557
318.15 K, x1 = 0.8012 | 1170.53 | 1389.2 | 2.773
318.15 K, x1 = 0.8856 | 1179.42 | 1419.9 | 2.908
318.15 K, x1 = 1 | 1191.25 | 1464.8 | 3.022

Nc1cccc(Cl)c1 [3-chlorobenzenamine] + O=[N+]([O-])c1ccccc1
Conditions | mass density [kg/m3] | speed of sound [m/s] | viscosity [mPa·s]
303.15 K, x1 = 0.0812 | 1194.97 | 1445 | 1.938
303.15 K, x1 = 0.1725 | 1196.57 | 1452.6 | 2.253
303.15 K, x1 = 0.2623 | 1198.01 | 1460 | 2.537
303.15 K, x1 = 0.3725 | 1199.59 | 1468.9 | 2.863
303.15 K, x1 = 0.4854 | 1201 | 1478 | 3.179
303.15 K, x1 = 0.5896 | 1202.12 | 1486.4 | 3.456
303.15 K, x1 = 0.6785 | 1202.96 | 1493.5 | 3.679
303.15 K, x1 = 0.7825 | 1203.81 | 1501.6 | 3.915
303.15 K, x1 = 0.8905 | 1204.59 | 1509.8 | 4.117
303.15 K, x1 = 1 | 1205.32 | 1517.5 | 4.255
308.15 K, x1 = 0.0812 | 1189.92 | 1427.2 | 1.787
308.15 K, x1 = 0.1725 | 1191.59 | 1435 | 2.079
308.15 K, x1 = 0.2623 | 1193.07 | 1442.5 | 2.34
308.15 K, x1 = 0.3725 | 1194.69 | 1451.6 | 2.637
308.15 K, x1 = 0.4854 | 1196.16 | 1460.9 | 2.922
308.15 K, x1 = 0.5896 | 1197.35 | 1469.4 | 3.168
308.15 K, x1 = 0.6785 | 1198.25 | 1476.7 | 3.362
308.15 K, x1 = 0.7825 | 1199.18 | 1485 | 3.565
308.15 K, x1 = 0.8905 | 1200.03 | 1493.4 | 3.734
308.15 K, x1 = 1 | 1200.75 | 1501.2 | 3.842
313.15 K, x1 = 0.0812 | 1185.37 | 1409.1 | 1.666
313.15 K, x1 = 0.1725 | 1187.04 | 1416.6 | 1.935
313.15 K, x1 = 0.2623 | 1188.49 | 1423.8 | 2.167
313.15 K, x1 = 0.3725 | 1190.08 | 1432.6 | 2.427
313.15 K, x1 = 0.4854 | 1191.52 | 1441.5 | 2.674
313.15 K, x1 = 0.5896 | 1192.7 | 1449.8 | 2.889
313.15 K, x1 = 0.6785 | 1193.61 | 1456.8 | 3.059
313.15 K, x1 = 0.7825 | 1194.55 | 1465 | 3.234
313.15 K, x1 = 0.8905 | 1195.37 | 1473 | 3.369
313.15 K, x1 = 1 | 1196.02 | 1480.3 | 3.43
318.15 K, x1 = 0.0812 | 1179.19 | 1392.1 | 1.542
318.15 K, x1 = 0.1725 | 1181 | 1399.7 | 1.787
318.15 K, x1 = 0.2623 | 1182.58 | 1407 | 1.992
318.15 K, x1 = 0.3725 | 1184.35 | 1415.8 | 2.218
318.15 K, x1 = 0.4854 | 1185.97 | 1424.9 | 2.43
318.15 K, x1 = 0.5896 | 1187.32 | 1433.4 | 2.615
318.15 K, x1 = 0.6785 | 1188.37 | 1440.7 | 2.755
318.15 K, x1 = 0.7825 | 1189.5 | 1449.1 | 2.902
318.15 K, x1 = 0.8905 | 1190.49 | 1457.3 | 3.004
318.15 K, x1 = 1 | 1191.25 | 1464.8 | 3.022
